Reference: PubChem BioAssay AID1259407 (Chemical Carcinogenesis Research Information System (CCRIS), 2018)
Calls of active or inactive are those of the source. No rule for the calls is given here.

Tested on: CCRIS mutagenicity, Ames/micronucleus/aberration tests
Assay: CCRIS mutagenicity studies
[1] = Test System: AMES SALMONELLA TYPHIMURIUM, Strain/Indicator: TA98, Metabolic Activation: HAMSTER, LIVER, S-9, AROCLOR 1254, Method: STANDARD PLATE
[2] = Test System: AMES SALMONELLA TYPHIMURIUM, Strain/Indicator: TA98, Metabolic Activation: NONE, Method: STANDARD PLATE
[3] = Test System: AMES SALMONELLA TYPHIMURIUM, Strain/Indicator: TA98, Metabolic Activation: RAT, LIVER, S-9, AROCLOR 1254, Method: STANDARD PLATE
[4] = Test System: AMES SALMONELLA TYPHIMURIUM, Strain/Indicator: TA100, Metabolic Activation: HAMSTER, LIVER, S-9, AROCLOR 1254, Method: STANDARD PLATE
[5] = Test System: AMES SALMONELLA TYPHIMURIUM, Strain/Indicator: TA100, Metabolic Activation: NONE, Method: STANDARD PLATE
[6] = Test System: AMES SALMONELLA TYPHIMURIUM, Strain/Indicator: TA100, Metabolic Activation: RAT, LIVER, S-9, AROCLOR 1254, Method: STANDARD PLATE

## CC(=O)/C=C/c1ccccc1
[1]
  mutagenic call: inactive; negative
[2]
  mutagenic call: inactive; negative
[3]
  mutagenic call: inactive; negative
[4]
  mutagenic call: active; positive
[5]
  mutagenic call: inactive; negative
[6]
  mutagenic call: active; positive
Test System: Mouse lymphoma, Strain/Indicator: L5178Y (tk+/tk-), Metabolic Activation: None, Method: Suspension/plate
  mutagenic call: active; positive
Test System: Mouse lymphoma, Strain/Indicator: L5178Y (tk+/tk-), Metabolic Activation: Rat, Liver, S-9, Aroclor 1254, Method: Suspension/plate
  mutagenic call: inactive; negative

## Cc1cc2c(nc(N)n2C)c2nc(-c3ccccc3)cnc12
[3]
  mutagenic call: active; positive

## O=C(/C=C/c1ccc(O)c(O)c1)O[C@@H]1C[C@](O)(C(=O)O)C[C@@H](O)[C@H]1O
[1]
  mutagenic call: inactive; negative
[2]
  mutagenic call: inactive; negative
[3]
  mutagenic call: inactive; negative
[4]
  mutagenic call: inactive; negative
[5]
  mutagenic call: inactive; negative
[6]
  mutagenic call: inactive; negative
Test System: AMES SALMONELLA TYPHIMURIUM, Strain/Indicator: TA1535, Metabolic Activation: HAMSTER, LIVER, S-9, AROCLOR 1254, Method: STANDARD PLATE
  mutagenic call: inactive; negative
Test System: AMES SALMONELLA TYPHIMURIUM, Strain/Indicator: TA1535, Metabolic Activation: NONE, Method: STANDARD PLATE
  mutagenic call: inactive; negative
Test System: AMES SALMONELLA TYPHIMURIUM, Strain/Indicator: TA1535, Metabolic Activation: RAT, LIVER, S-9, AROCLOR 1254, Method: STANDARD PLATE
  mutagenic call: inactive; negative
Test System: AMES SALMONELLA TYPHIMURIUM, Strain/Indicator: TA1537, Metabolic Activation: HAMSTER, LIVER, S-9, AROCLOR 1254, Method: STANDARD PLATE
  mutagenic call: inactive; negative
Test System: AMES SALMONELLA TYPHIMURIUM, Strain/Indicator: TA1537, Metabolic Activation: NONE, Method: STANDARD PLATE
  mutagenic call: inactive; negative
Test System: AMES SALMONELLA TYPHIMURIUM, Strain/Indicator: TA1537, Metabolic Activation: RAT, LIVER, S-9, AROCLOR 1254, Method: STANDARD PLATE
  mutagenic call: inactive; negative
Test System: AMES SALMONELLA TYPHIMURIUM, Strain/Indicator: TA1538, Metabolic Activation: HAMSTER, LIVER, S-9, AROCLOR 1254, Method: STANDARD PLATE
  mutagenic call: inactive; negative
Test System: AMES SALMONELLA TYPHIMURIUM, Strain/Indicator: TA1538, Metabolic Activation: NONE, Method: STANDARD PLATE
  mutagenic call: inactive; negative
Test System: AMES SALMONELLA TYPHIMURIUM, Strain/Indicator: TA1538, Metabolic Activation: RAT, LIVER, S-9, AROCLOR 1254, Method: STANDARD PLATE
  mutagenic call: inactive; negative
Test System: MOUSE LYMPHOMA, Strain/Indicator: L5178Y (TK+/TK-), Metabolic Activation: NONE, Method: SUSPENSION/PLATE
  mutagenic call: inactive; negative. reevaluation of results: negative
Test System: MOUSE LYMPHOMA, Strain/Indicator: L5178Y (TK+/TK-), Metabolic Activation: RAT, LIVER, S-9, AROCLOR 1254, Method: SUSPENSION/PLATE
  mutagenic call: active; positive. reevaluation of results: positive

## CC(C)(C)NC[C@H](O)COc1ccccc1C1CCCC1
[2]
  mutagenic call: active; positive
[3]
  mutagenic call: inactive; negative
[5]
  mutagenic call: inactive; negative
[6]
  mutagenic call: inactive; negative
Test System: AMES SALMONELLA TYPHIMURIUM, Strain/Indicator: TA102, Metabolic Activation: NONE, Method: STANDARD PLATE
  mutagenic call: inactive; negative
Test System: AMES SALMONELLA TYPHIMURIUM, Strain/Indicator: TA102, Metabolic Activation: RAT, LIVER, S-9, AROCLOR 1254, Method: STANDARD PLATE
  mutagenic call: inactive; negative

## C=CC(=O)OCC1CO1 (stereo not given)
Test System: AMES SALMONELLA TYPHIMURIUM, Strain/Indicator: TA100, Metabolic Activation: HAMSTER, LIVER, S-9, AROCLOR 1254 (10%), Method: PREINCUBATION
  mutagenic call: active; positive
Test System: AMES SALMONELLA TYPHIMURIUM, Strain/Indicator: TA100, Metabolic Activation: NONE, Method: PREINCUBATION
  mutagenic call: active; positive
Test System: AMES SALMONELLA TYPHIMURIUM, Strain/Indicator: TA100, Metabolic Activation: RAT, LIVER, S-9, AROCLOR 1254 (10%), Method: PREINCUBATION
  mutagenic call: active; positive
Test System: AMES SALMONELLA TYPHIMURIUM, Strain/Indicator: TA1535, Metabolic Activation: HAMSTER, LIVER, S-9, AROCLOR 1254 (10%), Method: PREINCUBATION
  mutagenic call: active; positive
Test System: AMES SALMONELLA TYPHIMURIUM, Strain/Indicator: TA1535, Metabolic Activation: NONE, Method: PREINCUBATION
  mutagenic call: active; positive
Test System: AMES SALMONELLA TYPHIMURIUM, Strain/Indicator: TA1535, Metabolic Activation: RAT, LIVER, S-9, AROCLOR 1254 (10%), Method: PREINCUBATION
  mutagenic call: active; positive

## COc1ccc2oc3cc(O)cc(O)c3c(=O)c2c1
Test System: AMES SALMONELLA TYPHIMURIUM, Strain/Indicator: TA97, Metabolic Activation: RAT, LIVER, S-9, PHENOBARBITAL AND 5,6-BENZOFLAVONE, Method: PREINCUBATION
  mutagenic call: active; positive
Test System: AMES SALMONELLA TYPHIMURIUM, Strain/Indicator: TA98, Metabolic Activation: RAT, LIVER, S-9, PHENOBARBITAL AND 5,6-BENZOFLAVONE, Method: PREINCUBATION
  mutagenic call: active; positive
Test System: AMES SALMONELLA TYPHIMURIUM, Strain/Indicator: TA100, Metabolic Activation: RAT, LIVER, S-9, PHENOBARBITAL AND 5,6-BENZOFLAVONE, Method: PREINCUBATION
  mutagenic call: active; positive
Test System: AMES SALMONELLA TYPHIMURIUM, Strain/Indicator: TA2637, Metabolic Activation: RAT, LIVER, S-9, PHENOBARBITAL AND 5,6-BENZOFLAVONE, Method: PREINCUBATION
  mutagenic call: active; positive

## CCCCCC(=O)CC
Test System: CHINESE HAMSTER V-79, Strain/Indicator: V-79 (HPRT)/6-THIOGUANINE, Metabolic Activation: NONE, Method: STANDARD PLATE
  mutagenic call: inactive; negative
Test System: CHINESE HAMSTER V-79, Strain/Indicator: V-79 (HPRT)/6-THIOGUANINE, Metabolic Activation: RAT LIVER S-9, Method: STANDARD PLATE
  mutagenic call: inactive; negative

## CCCOS(=O)(=O)OCCC
End Point: In vitro micronucleus, Test System: Chinese Hamster Ovary (CHO-WBL) cells, Metabolic Activation: None
  mutagenic call: active; positive (p<0.01)
